Key:
Type in all cases: cell-based
[1] = tested on: RAW 264.7 cells in high glucose medium; assay: Osteoclastogenesis and autophagy of RANKL-treated RAW 264.7 cells in high glucose medium; details: high glucose medium
Method: FIG. 20 RAW 264.7 cells were treated with RANKL (100 ng/ml) with or without AdipoRon ([…]) or AdipoAI (5 μM) in low (5 mmol/l) glucose, 20 mmol/l D-mannitol or high (25 mmol/l) glucose medium. qRT-PCR analysis of cathepsin K (A), TRAP (B) and microtubule associated protein 1 light chain 3 (LC3) (C), and mRNA expression were calculated (n≥3). (D) Western blot analysis of LC3A/B protein levels normalized to β-actin. (E) The mean of protein/β-actin ratios normalized to 1.0 (RANKL-AdipoRon-AdipoAI-H group) quantified by densitometry. (F) Autophagosome images obtained with laser confocal microscopy after the RAW 264.7 cells were transfected with a GFP-LC3 plasmid and treated with RANKL and AdipoRon or AdipoAI (scale bar=50 μm). Data are shown as mean±SD. *, P<0.05. **P<0.01. ***P<0.001.
FIG. 21 Autophagy inhibitor reverses AdipoAI-inhibited osteoclastogenesis in high glucose medium. RAW 264.7 cells were treated with RANKL (100 ng/ml) in 2 days and with or without AdipoAI (5 μM) for 24 hours followed by 3-methyladenine (3-MA, 2.5 mM) treatment for another 24 hours in high glucose medium. qRT-PCR analysis of cathepsin K (A), TRAP (B) and LC3 (C) mRNA expression were calculated (n≥3). (D) Western blot analysis of LC3A/B protein levels normalized to β-actin. (E) The mean of protein/β-actin ratios normalized to 1.0 (3-MA-, RANKL-, AdipoAI-group) quantified by densitometry. Data are shown as mean±SD. *, P<0.05. **P<0.01. ***P<0.001.
FIG. 22 AdipoAI-induced autophagy of osteoclasts in high glucose medium via AKT1/mTOR signaling pathway. RAW 264.7 cells were induced with RANKL for 2 days and then treated with or without (5 μM) additional 24 hours after serum starvation for 4 hours. Then, the cells were treated with RANKL, AdipoAI or SC79 (5 μM), an AKT activator, for another 24 hours in high glucose medium. qRT-PCR analysis of mRNA expression of cathepsin K (A), TRAP (B) and LC3 (C) were calculated (n≥3). (D) Representative images show the protein expression levels of AKT, p-AKT, AKT1, p-AKT1, mTOR, p-mTOR, and LC3A/B in osteoclasts. Quantitative analysis of bands is shown in (E-K) (n≥3). Data are shown as mean±SD. *, P<0.05. **P<0.01. ***P<0.001. R: RANKL. A, AI: AdipoAI. SC5: SC79 (5 μM).
RAW 264.7 cells (ATCC, Manassas, VA, USA) were cultured and passaged in DMEM supplemented with 10% (v/v) FBS (Invitrogen, Grand Island, NY, USA) and 1% Penicillin-Streptomycin (Gibco, Gaithersburg, MD, USA). For the induction of osteoclastogenesis, RAW 264.7 cells were cultured 24 in α-MEM supplemented with 10% FBS and 1% Penicillin-Streptomycin in the presence of 100 ng/ml RANKL (Peprotech, Rocky Hill, NJ, USA) for 2 days, and subsequently treated or not with AdipoRon or AdipoAI for another 2 days changing cell culture medium every 2 days. After a total of […] of culture, morphologic examination was performed, as was mRNA and protein expression. To simulate high glucose environment in vitro, α-MEM was supplemented with D-glucose to 25 mmol/l (high glucose) or 5 mmol/l (physiological glucose). 20 mmol/l D-mannitol served as an osmotic control.
Total RNA was isolated from cell cultures and gingival soft tissues using TriZol reagent (Life Technologies, Carlsbad, CA, USA) according to the manufacturer's instructions^24. Reverse transcription was performed using the PrimeScript RT Master Mix (Takara Bio, Otsu, Japan) and real-time-qPCR analyses were performed using SYBR-Green Real-Time PCR Master Mix (Takara Bio, Otsu, Japan) as described earlier^27.
Total cellular extracts were prepared using RIPA Lysis and Extraction Buffer containing three Protease Inhibitors (Santa Cruz, Dallas, TX, USA). Western blot analyses were performed as previously described 24. Antibodies for β-actin (1:2000) and GAPDH (1:5000), LC3A/B (1:1000), AKT1 (1:1000), p-AKT1 (1:1000), AKT (1:1000), p-AKT (1:1000), mTOR (1:1000), p-mTOR (1:1000) were purchased from Abcam and Cell Signaling Technology, respectively. SC79, an AKT activator was purchased from Sigma Aldrich. […]

[2] = tested on: LPS-stimulated RAW 264.7 macrophages; assay: qPCR of cytokine mRNA in LPS-stimulated RAW 264.7 macrophages; details: compounds at 5 μM vs APR at 20 μM, 24 h pretreatment, then LPS 100 ng/mL 6 h
Method: (§1) FIG. 1 Characterization of anti-inflammatory properties of APR-like compounds. (a) Raw264.7 cells were pretreated with APR (20 μM) or new compounds 1 to 10 (5 μM) for 24 h followed by incubation with LPS (100 ng/mL) for an additional 6 h. IL-6 and IL-1β mRNA expression levels were evaluated by qPCR and normalized with GAPDH mRNA level. (b) Raw264.7 cells were pretreated with different doses of AdipoAI for 24 h followed by incubation with LPS (100 ng/mL) for additional 6 h to evaluate dose-dependency of AdipoAI in inhibiting IL-6 and IL-1β mRNA expression levels by qRT-PCR and normalized with GAPDH mRNA level. (c) Evaluation of cytotoxicity of APR, AdipoAI and compound 5 by CCK8 assay in Raw264.7 cells treated for 24 hours. (d) BMMs were pretreated with APR (20 μM), AdipoAI (5 μM) or compound 5 (5 μM) for 24 h followed by incubation with LPS (100 ng/ml) for additional 6 h for the measurement of IL-6 and IL-1β mRNA expression levels by qRT-PCR and normalized with GAPDH mRNA level. Data were expressed as the mean±SEM at five biological independent experiments. One-way ANOVA test for multiple-group comparisons, *P<0.05, significant differences between each indicated group.
RAW 264.7 macrophage cell line was purchased from ATCC (Manassas, VA, USA) and maintained in DMEM (Gibco, Life Technologies, Carlsbad, CA, USA) supplemented with 10% (v.v-1) FBS (Gibco, Life Technologies) and 1% (v.v-1) penicillin/streptomycin (Gibco, Life Technologies). The cells were routinely cultured in an incubator at 37° C. in a humidified atmosphere of 5% CO2.
Total RNA of cells was extracted using Quick-RNA Miniprep Kit (ZYMO Research, Irvine, CA, USA) and total RNA from mouse tissues was prepared with TriZol reagent (Life Technologies) according to the manufacturer's instructions followed by qRT-PCR assays as described previously (L. Zhang et al., 2014). 1 μg of total RNA was used for reverse transcription using the M-MLV Reverse Transcriptase (Thermo Scientific, Waltham, MA, USA) according to the manufacturer's protocol using PowerUp SYBR Green Master Mix (Thermo Scientific) on a Bio-Rad iQ5 thermal cycler (Bio-Rad Laboratories, Hercules, CA, USA). Differences in expression were evaluated by the comparative cycle threshold method using GAPDH or β-actin as a control. The primer sequences used for the qRT-PCR experiments are listed in supplemental Table 1.
Macrophages were seeded at a density of 5×10^5 cells/well in 12-well plates. After overnight incubation, the cells were transfected for 24 h with siRNAs targeting specific genes or scrambled control siRNAs using HiPerFect Transfection Reagent (Qiagen, Hilden, Germany) according to the manufacturer's guidelines. Gene silencing efficiency was monitored by qPCR or Western blot analysis. The siRNA duplexes used in this study were chemically synthesized by Thermo Scientific.

Raw264.7 cells = assay: CCK-8 cytotoxicity assay, 24 hours; details: at 40 μM or lower concentrations
Method: as §1
Raw264.7 cells were seeded at 2×10^3 cells/well in 96-well plates for 16 hours and then serum-starved for 6 hours. Cells were maintained in DMEM in the presence of different concentrations of APR (AdipoGen Life Sciences, San Diego, CA, USA) and compounds for 24 hours. […] The detailed group assignment is shown in the individual figure legends.

Cn1cnc(N)c2ncnc1-2 [3-methyladenine, reference compound]
LC3 mRNA and LC3II protein induced by AdipoAI ([1]; 3-MA 2.5 mM 24 hours): decreased the mRNA expression of LC3 and protein expression of LC3II induced by AdipoAI
AdipoAI-inhibited mRNA expression of Cathepsin K and TRAP ([1]; 3-MA 2.5 mM): reversed the AdipoAI-inhibited mRNA expression of osteoclastogenesis markers Cathepsin K and TRAP

CC(c1ccccc1)N1CCC(NC(=O)COc2ccc(C(=O)c3ccc(Cl)cc3)cc2)CC1 (stereo not drawn) [Compound 5]
inhibition of IL-6 and IL1-β mRNA expression [2]: stronger inhibitory effects than APR
cytotoxic effects (CCK-8) (Raw264.7 cells): neither of the 3 small molecules mediated significant cytotoxic effects

CCOC(=O)C1=C(N)Oc2ccc(Cl)cc2C1C(C#N)C(=O)OCC (stereo not drawn) [SC79, reference compound]
LC3II, AKT expression and AKT, AKT1, mTOR phosphorylation changes induced by AdipoAI ([1]; SC79 5 μM): reverses the promoted expression of LC3II
LC3 mRNA and osteoclastogenic marker mRNA under AdipoAI ([1]; SC79 5 μM): reverses the upregulated expression of LC3 mRNA and downregulated expression of osteoclastogenic markers

Source: US12391646B2, “Using adiponectin receptor agonists to treat inflammation and bone diseases in diabetes” (Trustees of Tufts College, priority 2020, dated 2025)
